From patent US20240002441A1, “PEPTIDES AND USES THEREOF IN MODULATION OF AMYLOID-BETA PROTEIN DEGRADING PROTEASES” (priority 2020, published 2024)

Columns and labels:
[1] = target: T1, IDE (Homo sapiens, UniProt P14735); experiment: QFS assay of Aβ-degrading enzymes: IDE (Example 6); type: biochemical
T1 sequence (P14735 1-1019): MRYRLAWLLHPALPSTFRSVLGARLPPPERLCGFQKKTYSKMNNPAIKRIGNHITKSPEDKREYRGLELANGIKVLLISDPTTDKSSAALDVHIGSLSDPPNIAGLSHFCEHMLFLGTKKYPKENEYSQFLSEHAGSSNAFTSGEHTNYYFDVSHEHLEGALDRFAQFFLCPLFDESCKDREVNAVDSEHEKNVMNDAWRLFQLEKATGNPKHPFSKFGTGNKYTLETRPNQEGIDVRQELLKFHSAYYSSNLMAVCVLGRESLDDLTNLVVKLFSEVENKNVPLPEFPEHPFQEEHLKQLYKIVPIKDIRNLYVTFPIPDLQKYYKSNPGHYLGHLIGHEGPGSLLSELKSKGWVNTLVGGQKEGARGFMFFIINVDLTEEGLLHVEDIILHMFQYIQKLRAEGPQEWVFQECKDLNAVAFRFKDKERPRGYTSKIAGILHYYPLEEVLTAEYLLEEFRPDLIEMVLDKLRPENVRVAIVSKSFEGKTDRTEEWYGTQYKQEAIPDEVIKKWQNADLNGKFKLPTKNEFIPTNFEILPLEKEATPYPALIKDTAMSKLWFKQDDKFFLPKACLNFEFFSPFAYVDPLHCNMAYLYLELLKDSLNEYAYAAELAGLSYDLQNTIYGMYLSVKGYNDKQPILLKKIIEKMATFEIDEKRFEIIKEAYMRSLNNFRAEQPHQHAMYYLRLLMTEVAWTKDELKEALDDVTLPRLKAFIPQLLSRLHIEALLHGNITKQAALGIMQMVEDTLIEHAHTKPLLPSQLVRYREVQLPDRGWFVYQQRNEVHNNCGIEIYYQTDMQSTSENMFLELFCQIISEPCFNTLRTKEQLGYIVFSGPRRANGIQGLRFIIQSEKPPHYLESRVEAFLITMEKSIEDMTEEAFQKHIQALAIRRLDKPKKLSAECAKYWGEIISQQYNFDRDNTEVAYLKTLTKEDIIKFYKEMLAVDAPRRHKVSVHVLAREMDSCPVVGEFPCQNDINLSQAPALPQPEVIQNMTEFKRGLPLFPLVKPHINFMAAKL
Protocol: (§1) Plate reader-based enzyme assays were performed using a quenched fluorescent substrate (QFS) in a 96-well format using a SpectraMAX M4 Microplate reader (Molecular Devices). The increase in fluorescence following addition of QFS (40 μM) was taken as evidence of enzyme activity. Fluorescence was monitored over 2 h at 37° C. using κEx=320 nm and λEm=405 nm. Assays were conducted in black 96-well plates. Specific enzyme activity was expressed as a rate of substrate cleavage calculated using a standard curve of 7-methoxy-coumarin-4-acetic acid.
(§2) In all plate reader-based enzyme assays using QFS, the reaction rate (μmol of substrate cleaved/min) was calculated using linear regression analysis (GraphPad Prism software version 8.01). The reaction rates calculated were used to generate the enzyme kinetic parameters Vmax and Km through non-linear regression analysis (GraphPad Prism software, version 8.01; Michaelis-Menten equation). Where indicated, enzyme activity in the presence of peptide was expressed as a % of the enzyme alone. Data were expressed as mean±SEM and statistical significance was determined using t-tests or one-way ANOVAs followed by Tukey's post-hoc test. P<0.05 was considered as statistically significant. In all assays conducted using 96-well plates, the reaction mixtures in each well were considered an independent experiment.
SEQ ID NO:2 was assessed in a QFS assay against enzymes NEP, ECE1, ECE2, ACE1, ACE2, IDE and MMP-2 using the method in Example 2 and the following procedure. NEP, ACE1, ECE2 (0.05 ng/μL), ACE2, IDE (0.10 ng/μL), and ECE1 (6.4 ng/μL) were incubated with SEQ ID NO:2 (0.9-26 μM) or scrambled control (9 μM) for 1 h at 37° C. Prior to use, MMP2 (0.50 ng/μL) was activated using p-aminophenylmercuric acetate to a final concentration of 100 μM for 1 h at 37° C. Following activation, MMP2 was incubated with SEQ ID NO:2 for 1 h at 37° C. before adding the appropriate QFS.

[2] = target: T2, ACE2 (Homo sapiens, UniProt Q9BYF1); experiment: ACE2 enzyme kinetics study with QFS (Example 5); type: biochemical; conditions: rhACE2 0.1 ng/μL, ACE2 QFS 0-100 μM; pre-incubation 1 h at 37° C.
T2 construct: purchased R & D systems 933-ZN-010
Protocol: as §1
as §2, with “experiment. […]” for “experiment.”

T2 sequence (Q9BYF1 18-805): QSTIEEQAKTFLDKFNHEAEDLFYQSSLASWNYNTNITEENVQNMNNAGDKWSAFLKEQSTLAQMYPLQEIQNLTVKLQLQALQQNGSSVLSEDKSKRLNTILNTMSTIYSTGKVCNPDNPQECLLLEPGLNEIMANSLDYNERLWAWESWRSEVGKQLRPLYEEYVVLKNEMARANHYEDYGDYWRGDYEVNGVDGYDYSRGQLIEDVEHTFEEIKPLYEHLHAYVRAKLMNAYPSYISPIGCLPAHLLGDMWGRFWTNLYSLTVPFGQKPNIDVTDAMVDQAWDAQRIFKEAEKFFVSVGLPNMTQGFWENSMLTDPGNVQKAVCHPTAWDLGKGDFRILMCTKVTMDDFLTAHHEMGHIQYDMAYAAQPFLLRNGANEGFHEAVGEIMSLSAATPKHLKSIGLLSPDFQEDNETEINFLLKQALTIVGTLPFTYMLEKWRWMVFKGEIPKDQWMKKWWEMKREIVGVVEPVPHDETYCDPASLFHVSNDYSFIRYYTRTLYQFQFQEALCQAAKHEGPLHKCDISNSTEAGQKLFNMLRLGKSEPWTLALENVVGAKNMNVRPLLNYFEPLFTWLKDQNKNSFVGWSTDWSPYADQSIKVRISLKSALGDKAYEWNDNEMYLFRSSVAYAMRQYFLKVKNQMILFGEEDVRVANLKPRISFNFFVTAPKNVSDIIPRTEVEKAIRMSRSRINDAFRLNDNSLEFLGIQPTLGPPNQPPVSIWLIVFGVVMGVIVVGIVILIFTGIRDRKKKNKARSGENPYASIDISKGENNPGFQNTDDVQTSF

H-SLFELGKMIL-NH2 [SEQ ID NO:2, H2N-SLFELGKMIL-NH2]
IDE activity compared with respective enzyme alone ([1]; peptide 2 μM (FIG. 2c)): did not increase
IDE activity compared with respective enzyme alone ([1]; peptide 9 μM, significantly less compared with ACE2 and NEP): significantly higher
IDE activity, concentration dependence ([1]; peptide 0.9-26 μM): increased the activity
vmax of rhACE2 in the presence of peptide [2]: 0.09±0.002 μmol substrate cleaved/min
